Here are results for six molecules from ChEMBL document CHEMBL2396617, “Activity-lipophilicity relationship studies on P-gp ligands designed as simplified tariquidar bulky fragments” (Bioorg Med Chem Lett, 2013).

The nature of series [1]: Inhibition of P-glycoprotein (unknown origin) expressed in MDCK cells assessed as reduction of calcein-AM transport after 30 mins by fluorescence assay. It counts as cell-based, Homo sapiens.
Series [2] has as its target T1, Broad substrate specificity ATP-binding cassette transporter ABCG2 (Homo sapiens, UniProt Q9UNQ0).
T1 sequence (Q9UNQ0 whole entry): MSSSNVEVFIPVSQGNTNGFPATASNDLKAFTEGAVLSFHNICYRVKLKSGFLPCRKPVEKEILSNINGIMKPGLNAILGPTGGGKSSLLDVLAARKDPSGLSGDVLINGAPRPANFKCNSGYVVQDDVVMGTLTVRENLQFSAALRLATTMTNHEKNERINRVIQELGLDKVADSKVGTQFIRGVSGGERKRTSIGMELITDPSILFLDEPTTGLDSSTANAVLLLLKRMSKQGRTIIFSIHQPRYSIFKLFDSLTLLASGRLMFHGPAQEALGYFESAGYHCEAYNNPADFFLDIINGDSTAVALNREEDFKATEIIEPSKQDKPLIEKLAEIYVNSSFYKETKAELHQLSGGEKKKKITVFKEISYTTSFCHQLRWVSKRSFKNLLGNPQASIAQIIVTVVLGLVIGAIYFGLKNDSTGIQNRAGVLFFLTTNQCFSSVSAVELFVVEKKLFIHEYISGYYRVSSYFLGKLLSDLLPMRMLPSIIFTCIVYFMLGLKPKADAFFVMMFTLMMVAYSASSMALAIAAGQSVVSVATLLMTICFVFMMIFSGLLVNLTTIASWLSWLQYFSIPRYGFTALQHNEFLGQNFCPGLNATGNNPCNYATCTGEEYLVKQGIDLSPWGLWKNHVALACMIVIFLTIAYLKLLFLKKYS
The series is described as follows: Inhibition of BCRP (unknown origin) expressed in MDCK cells assessed as reduction of […] transport after 30 mins by fluorescence assay. In kind it is cell-based.

Series [3] deals with MDCK. Description: Activation of ATPase activity of P-glycoprotein (unknown origin) expressed in MDCK cells assessed as reduction of reduction of ATP level after 2 hrs by luminescence assay. Particulars: Homo sapiens. It counts as cell-based.
Series [4] can be described thus: P-glycoprotein-mediated transport in human Caco2 cells assessed as efflux ratio of apparent permeability from basolateral to apical over apical to basolateral after 120 mins. It counts as ADME, cell-based. As to conditions: caco-2, 2 h. On the technique in general: Caco-2 monolayers are a common model of the intestinal barrier.
Series [5] has as its target Multidrug resistance-associated protein 1 (Homo sapiens, UniProt P33527). The series is described as follows: Inhibition of MRP1 (unknown origin) expressed in MDCK cells assessed as reduction of calcein-AM transport after 30 mins by fluorescence assay. It counts as cell-based.

Active and inactive are the calls of the source. No cut-off for these calls is given here. Bounds are passed on as bounds.

Chain of Multidrug resistance-associated protein 1 (P33527 whole entry): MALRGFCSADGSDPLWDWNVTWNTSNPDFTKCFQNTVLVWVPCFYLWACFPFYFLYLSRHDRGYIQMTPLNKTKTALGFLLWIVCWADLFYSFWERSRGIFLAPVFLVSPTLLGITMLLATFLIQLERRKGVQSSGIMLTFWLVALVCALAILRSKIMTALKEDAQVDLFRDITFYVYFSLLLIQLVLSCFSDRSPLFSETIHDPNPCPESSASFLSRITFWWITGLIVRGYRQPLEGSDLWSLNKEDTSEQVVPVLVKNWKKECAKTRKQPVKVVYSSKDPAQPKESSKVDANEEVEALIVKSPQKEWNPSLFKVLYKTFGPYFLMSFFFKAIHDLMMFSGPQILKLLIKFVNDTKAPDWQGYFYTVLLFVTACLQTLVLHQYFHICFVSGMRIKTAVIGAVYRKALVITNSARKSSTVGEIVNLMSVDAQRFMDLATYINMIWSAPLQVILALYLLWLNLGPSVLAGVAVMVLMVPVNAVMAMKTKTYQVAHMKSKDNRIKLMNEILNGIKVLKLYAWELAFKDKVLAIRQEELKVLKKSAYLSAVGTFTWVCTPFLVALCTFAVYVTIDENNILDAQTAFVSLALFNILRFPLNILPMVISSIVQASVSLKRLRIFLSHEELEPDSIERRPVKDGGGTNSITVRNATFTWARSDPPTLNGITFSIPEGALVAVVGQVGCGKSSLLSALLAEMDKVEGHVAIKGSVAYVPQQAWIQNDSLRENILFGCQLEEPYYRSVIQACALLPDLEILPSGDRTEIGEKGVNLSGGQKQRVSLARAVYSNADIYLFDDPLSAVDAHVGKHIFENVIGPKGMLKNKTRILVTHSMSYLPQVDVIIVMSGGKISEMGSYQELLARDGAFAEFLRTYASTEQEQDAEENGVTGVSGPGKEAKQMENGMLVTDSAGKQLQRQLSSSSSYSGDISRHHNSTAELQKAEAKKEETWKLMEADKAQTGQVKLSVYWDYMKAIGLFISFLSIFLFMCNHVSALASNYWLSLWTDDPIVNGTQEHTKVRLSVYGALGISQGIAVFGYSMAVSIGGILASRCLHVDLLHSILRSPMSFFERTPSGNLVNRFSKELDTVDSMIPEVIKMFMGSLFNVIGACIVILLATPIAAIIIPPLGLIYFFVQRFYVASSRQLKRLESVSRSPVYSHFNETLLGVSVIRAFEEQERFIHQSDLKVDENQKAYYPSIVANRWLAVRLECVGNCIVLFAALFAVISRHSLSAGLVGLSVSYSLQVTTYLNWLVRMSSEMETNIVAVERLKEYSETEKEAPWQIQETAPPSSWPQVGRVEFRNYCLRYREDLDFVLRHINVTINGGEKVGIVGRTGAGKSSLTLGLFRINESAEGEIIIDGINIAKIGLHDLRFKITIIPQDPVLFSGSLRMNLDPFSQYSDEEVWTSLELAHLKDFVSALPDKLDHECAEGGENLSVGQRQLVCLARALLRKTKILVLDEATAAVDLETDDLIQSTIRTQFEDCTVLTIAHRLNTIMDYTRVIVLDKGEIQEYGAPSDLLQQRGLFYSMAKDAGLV

The EC50 is the concentration giving half of the maximal effect. With `COc1cc2c(cc1OC)CN(CCCCCOc1ccc3ccccc3n1)CC2`, the results for the EC50 in series [1], in series [2] and in series [5] were 1.2 µM, more than 100 µM and more than 100 µM, respectively. In addition, in series [3], the result was inactive. The Ratio in series [4] turned out to be 2.9.

Consider `COc1cc2c(cc1OC)CN(CCCOc1ccnc3ccccc13)CC2`, for which the concentration giving a half-maximal response (EC50) is 40 µM in series [1], more than 100 µM in series [2] and more than 100 µM in series [5]. In addition, the result in series [3] was inactive.

Consider `COc1cc2c(cc1OC)CN(CCOc1ccc3ccccc3n1)CC2`, for which the half-maximal effective concentration (EC50) in series [1] is 1.3 µM; in series [2], more than 100 µM; in series [5], more than 100 µM. Further, the result in series [3] was inactive. Moreover, the Ratio in series [4] is given as 4.6.

In the case of `COc1cc2c(cc1OC)CN(CCCOc1ccc3ccccc3n1)CC2`, the half-maximal effective concentration (EC50) in series [1] was 6.1 µM; in series [2], more than 100 µM; in series [5], more than 100 µM. The result in series [3] was inactive. Moreover, the Ratio in series [4] is 4.4.

With `COc1cc2c(cc1OC)CN(CCCCOc1ccc3ccccc3n1)CC2`, the figures for the EC50 in series [1], in series [2] and in series [5] were 4.3 µM, more than 100 µM and more than 100 µM, respectively. Also, the outcome in series [3] was inactive. Also, the Ratio in series [4] came to 4.2.

As to `COc1cc2c(cc1OC)CN(C(=O)COc1ccc3ccccc3n1)CC2`, the values for the EC50 in series [1], in series [2] and in series [5] were 67 µM, more than 100 µM and more than 100 µM, respectively. Moreover, the outcome in series [3] was inactive.
